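Dose response: 5 concentrations. Exposure: 48 h. Format: 96-well plates. Endpoint: linear interpolation; highest concentration if not reached. At the GI50, growth is halved. The concentration for full growth arrest is given as TGI.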
Tests used:
Experiment in all cases: NCI tumour cell line growth inhibition, 48 h
786-0 renal = system: 786-0 renal
A549 NSCLC = system: A549 NSCLC
ACHN renal = system: ACHN renal
BT-549 breast = system: BT-549 breast
CAKI-1 renal = system: CAKI-1 renal
CCRF-CEM leukemia = system: CCRF-CEM leukemia
COLO 205 colon = system: COLO 205 colon
DU-145 prostate = system: DU-145 prostate
EKVX NSCLC = system: EKVX NSCLC
HCT-116 colon = system: HCT-116 colon
HCT-15 colon = system: HCT-15 colon
HL-60(TB) leukemia = system: HL-60(TB) leukemia
HOP-62 NSCLC = system: HOP-62 NSCLC
HOP-92 NSCLC = system: HOP-92 NSCLC
HS 578T breast = system: HS 578T breast
IGROV1 ovarian = system: IGROV1 ovarian
K-562 leukemia = system: K-562 leukemia
KM12 colon = system: KM12 colon
LOX IMVI melanoma = system: LOX IMVI melanoma
M14 melanoma = system: M14 melanoma
MCF7 breast = system: MCF7 breast
MDA-MB-231 breast = system: MDA-MB-231 breast
MDA-MB-435 = system: MDA-MB-435
MOLT-4 leukemia = system: MOLT-4 leukemia
NCI-H226 lung = system: NCI-H226 lung
NCI-H23 lung = system: NCI-H23 lung
NCI-H460 lung = system: NCI-H460 lung
NCI-H522 lung = system: NCI-H522 lung
NCI/ADR-RES ovarian = system: NCI/ADR-RES ovarian
OVCAR-3 ovarian = system: OVCAR-3 ovarian
OVCAR-4 ovarian = system: OVCAR-4 ovarian
OVCAR-5 ovarian = system: OVCAR-5 ovarian
OVCAR-8 ovarian = system: OVCAR-8 ovarian
PC-3 prostate = system: PC-3 prostate
RPMI-8226 leukemia = system: RPMI-8226 leukemia
RXF 393 renal = system: RXF 393 renal
SF-268 CNS = system: SF-268 CNS
SF-295 CNS = system: SF-295 CNS
SK-MEL-2 melanoma = system: SK-MEL-2 melanoma
SK-MEL-28 melanoma = system: SK-MEL-28 melanoma
SK-MEL-5 melanoma = system: SK-MEL-5 melanoma
SK-OV-3 ovarian = system: SK-OV-3 ovarian
SN12C renal = system: SN12C renal
SNB-19 CNS = system: SNB-19 CNS
SR leukemia = system: SR leukemia
SW-620 colon = system: SW-620 colon
TK-10 renal = system: TK-10 renal
U251 CNS = system: U251 CNS
UACC-257 melanoma = system: UACC-257 melanoma
UACC-62 melanoma = system: UACC-62 melanoma
UO-31 renal = system: UO-31 renal

Cc1ccc(NC(=O)c2cc(S(=O)(=O)Nc3nnc(-c4ccccc4)c(-c4ccccc4)n3)c(SCc3ccccc3)cc2Cl)cc1
GI50 (786-0 renal): 33.9 µM
TGI (786-0 renal): > 100 µM
GI50 (A549 NSCLC): 18.4 µM
TGI (A549 NSCLC): 34.3 µM
GI50 (ACHN renal): 17 µM
TGI (ACHN renal): 31.3 µM
GI50 (BT-549 breast): 19.8 µM
TGI (BT-549 breast): 45.9 µM
GI50 (CAKI-1 renal): 21.2 µM
TGI (CAKI-1 renal): 40.7 µM
GI50 (CCRF-CEM leukemia): 49.5 µM
TGI (CCRF-CEM leukemia): > 100 µM
GI50 (COLO 205 colon): 25 µM
TGI (COLO 205 colon): 55.6 µM
GI50 (DU-145 prostate): 20 µM
TGI (DU-145 prostate): 37.9 µM
GI50 (EKVX NSCLC): 18 µM
TGI (EKVX NSCLC): 37.6 µM
GI50 (HCT-116 colon): 28.5 µM
TGI (HCT-116 colon): 75.7 µM
GI50 (HCT-15 colon): 17.5 µM
TGI (HCT-15 colon): 39.1 µM
GI50 (HL-60(TB) leukemia): 17.2 µM
TGI (HL-60(TB) leukemia): 41.6 µM
GI50 (HOP-62 NSCLC): 36.1 µM
TGI (HOP-62 NSCLC): > 100 µM
GI50 (HOP-92 NSCLC): 18.8 µM
TGI (HOP-92 NSCLC): 42.9 µM
GI50 (HS 578T breast): 25.4 µM
TGI (HS 578T breast): 57.4 µM
GI50 (IGROV1 ovarian): 26.9 µM
TGI (IGROV1 ovarian): 93.7 µM
GI50 (K-562 leukemia): 23.8 µM
TGI (K-562 leukemia): > 100 µM
GI50 (KM12 colon): 21.5 µM
TGI (KM12 colon): 50.7 µM
GI50 (LOX IMVI melanoma): 13.3 µM
TGI (LOX IMVI melanoma): 28.6 µM
GI50 (M14 melanoma): 34.8 µM
TGI (M14 melanoma): > 100 µM
GI50 (MCF7 breast): 24.4 µM
TGI (MCF7 breast): > 100 µM
GI50 (MDA-MB-231 breast): 19.4 µM
TGI (MDA-MB-231 breast): 42.2 µM
GI50 (MDA-MB-435): 15.9 µM
TGI (MDA-MB-435): 35 µM
GI50 (MOLT-4 leukemia): > 100 µM
TGI (MOLT-4 leukemia): > 100 µM
GI50 (NCI-H226 lung): 21.4 µM
TGI (NCI-H226 lung): 56 µM
GI50 (NCI-H23 lung): 18.1 µM
TGI (NCI-H23 lung): 34.2 µM
GI50 (NCI-H460 lung): 26.4 µM
TGI (NCI-H460 lung): > 100 µM
GI50 (NCI-H522 lung): 42.4 µM
TGI (NCI-H522 lung): > 100 µM
GI50 (NCI/ADR-RES ovarian): 20.4 µM
TGI (NCI/ADR-RES ovarian): 41.2 µM
GI50 (OVCAR-3 ovarian): 17.5 µM
TGI (OVCAR-3 ovarian): 35.1 µM
GI50 (OVCAR-4 ovarian): 25.7 µM
TGI (OVCAR-4 ovarian): 92.2 µM
GI50 (OVCAR-5 ovarian): 19.4 µM
TGI (OVCAR-5 ovarian): 33.8 µM
GI50 (OVCAR-8 ovarian): 29.4 µM
TGI (OVCAR-8 ovarian): 76.8 µM
GI50 (PC-3 prostate): 18.2 µM
TGI (PC-3 prostate): 49.1 µM
GI50 (RPMI-8226 leukemia): 11.8 µM
TGI (RPMI-8226 leukemia): 44.8 µM
GI50 (RXF 393 renal): 25.6 µM
TGI (RXF 393 renal): 47.2 µM
GI50 (SF-268 CNS): 20.2 µM
TGI (SF-268 CNS): 84.5 µM
GI50 (SF-295 CNS): 19.4 µM
TGI (SF-295 CNS): 42.2 µM
GI50 (SK-MEL-2 melanoma): 49 µM
TGI (SK-MEL-2 melanoma): > 100 µM
GI50 (SK-MEL-28 melanoma): 29.5 µM
TGI (SK-MEL-28 melanoma): > 100 µM
GI50 (SK-MEL-5 melanoma): 19.2 µM
TGI (SK-MEL-5 melanoma): 37.6 µM
GI50 (SK-OV-3 ovarian): 22 µM
TGI (SK-OV-3 ovarian): 41.6 µM
GI50 (SN12C renal): 18.2 µM
TGI (SN12C renal): 43.9 µM
GI50 (SNB-19 CNS): 20.4 µM
TGI (SNB-19 CNS): 57.1 µM
GI50 (SR leukemia): 36 µM
TGI (SR leukemia): > 100 µM
GI50 (SW-620 colon): 25.1 µM
TGI (SW-620 colon): 55.4 µM
GI50 (TK-10 renal): 18.4 µM
TGI (TK-10 renal): 40.6 µM
GI50 (U251 CNS): 13.7 µM
TGI (U251 CNS): 28.7 µM
GI50 (UACC-257 melanoma): 20.7 µM
TGI (UACC-257 melanoma): 41.7 µM
GI50 (UACC-62 melanoma): 16.3 µM
TGI (UACC-62 melanoma): 31.2 µM
GI50 (UO-31 renal): 25.3 µM
TGI (UO-31 renal): 63.9 µM
